From publication PMC6078800 (Nature biotechnology, 2018) come the findings set out here.

For assay [1], the target named is T1, Mp-KYNase (Mucilaginibacter paludis, UniProt H1YAV1).
T1 sequence (H1YAV1 1-429): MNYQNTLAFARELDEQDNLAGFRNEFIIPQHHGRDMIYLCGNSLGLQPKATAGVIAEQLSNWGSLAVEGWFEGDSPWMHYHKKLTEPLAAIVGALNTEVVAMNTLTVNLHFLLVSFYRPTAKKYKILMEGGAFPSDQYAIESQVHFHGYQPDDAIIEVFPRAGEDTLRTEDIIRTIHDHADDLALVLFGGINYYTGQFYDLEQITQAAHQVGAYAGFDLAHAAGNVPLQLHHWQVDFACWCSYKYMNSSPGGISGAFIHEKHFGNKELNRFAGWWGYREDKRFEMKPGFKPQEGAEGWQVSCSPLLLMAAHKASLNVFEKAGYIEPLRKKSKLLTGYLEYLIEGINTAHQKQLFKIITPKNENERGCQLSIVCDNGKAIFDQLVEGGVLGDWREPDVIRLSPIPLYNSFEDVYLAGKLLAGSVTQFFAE
In words: absorbance at […] nm, initial rates, Michaelis-Menten fit. It counts as biochemical. As to conditions: DPBS pH 7.4; enzyme PLP-loaded; not PEGylated.

For assay [2], the target named is T2, Pf-KYNase (Pseudomonas fluorescens, UniProt P83788).
T2 sequence (P83788 1-416): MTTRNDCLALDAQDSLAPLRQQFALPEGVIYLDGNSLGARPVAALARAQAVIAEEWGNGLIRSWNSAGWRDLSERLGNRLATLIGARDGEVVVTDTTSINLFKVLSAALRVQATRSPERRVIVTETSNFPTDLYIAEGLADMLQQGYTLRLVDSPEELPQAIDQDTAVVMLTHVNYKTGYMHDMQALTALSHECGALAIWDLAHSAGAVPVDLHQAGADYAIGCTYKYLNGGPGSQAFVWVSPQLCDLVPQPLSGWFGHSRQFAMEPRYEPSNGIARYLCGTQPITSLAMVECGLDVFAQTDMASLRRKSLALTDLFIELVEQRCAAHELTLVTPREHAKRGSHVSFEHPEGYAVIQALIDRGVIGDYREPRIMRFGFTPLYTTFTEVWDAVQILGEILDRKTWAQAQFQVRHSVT
Described as above. The format is biochemical. As to conditions: DPBS pH 7.4; enzyme PLP-loaded; not PEGylated.

For `Nc1ccccc1C(=O)C[C@H](N)C(=O)O` [kynurenine], the KM entry in assay [1] is recorded as “kinetic parameters for the kynureninase enzymes against both kynurenine (Kyn, Sigma)”; in assay [2], “kinetic parameters for the kynureninase enzymes against both kynurenine (Kyn, Sigma)”.
